This note sets out measurements from patent US9717699B2, “Sterilized compositions of cyanoacrylate monomers and naphthoquinone 2,3-oxides” (Adhezion Biomedical, LLC, priority 2014, dated 2017).

A short description of the data set: Miscibility/solubility of additive in cyanoacrylate monomer. Format: physicochemical. Conditions: activated 2-octyl cyanoacrylate composition, room temperature.

As to `CC(=O)Oc1cc(C)c(OC(C)=O)c2ccccc12` [1,4-diacetoxy-2-methylnaphthalene], the “Miscibility with 2-octyl cyanoacrylate” value is “well soluble”.

With `CC1=CC(=O)c2ccccc2C1=O` [2-methyl-1,4-naphthoquinone], the “Miscibility with 2-octyl cyanoacrylate” value is listed as “well-miscible”.

On to `CC1=C(C/C=C(\C)CCC[C@H](C)CCC[C@H](C)CCCC(C)C)C(=O)c2ccccc2C1=O` [2-methyl-3-phytyl-1,4-naphthoquinone], for which the “Miscibility with 2-octyl cyanoacrylate” value is reported as “well dissolved”.

In the case of `C/C(=C\CC12OC1(C)C(=O)c1ccccc1C2=O)CCCC(C)CCCC(C)CCCC(C)C` (centres unmarked) [Vitamin K1 oxide, 2-methyl-3-phytyl-1,4-naphthoquinone 2,3-oxide], the “Miscibility with 2-octyl cyanoacrylate” value is reported as “well-miscible”. Moreover, under “listed as Phylloquinone oxide”, the “Miscibility with 2-octyl cyanoacrylate” value is listed as “well miscible”.
